Data: patent publication US20250304559A1, “Ether-Linked Antiviral Compounds” (Pfizer Inc., priority 2021, published 2025)
Where a name gives a salt, the structure may show the parent alone. Read-outs that look alike come from different tables or passages of the source.

How the values were obtained:
[1] = target: T1, SARS-CoV-2 3CL protease (Severe acute respiratory syndrome coronavirus 2, UniProt P0DTD1); experiment: SARS-CoV-2 Coronavirus 3C Protease FRET Assay; assay type: biochemical; conditions: Morrison equation fit, 15 nM enzyme, 25 μM peptide substrate
T1 construct: measures the activity of full-length SARS-CoV-2 3CL protease

[2] = tested on: SARS-CoV-2 (USA_WA1/2020); experiment: Antiviral Activity from SARS-CoV-2 Infection (cytopathic effect, Cell Titer-Glo); assay type: cell-based; conditions: Severe acute respiratory syndrome coronavirus 2, Vero C1008, 72 h, VeroE6 cells enriched for hACE2, MOI 0.002, 3-day incubation; tested alone or with P-gp inhibitor CP-100356 2 μM (table does not say which); read-out: Geometric Mean EC50
[3] = Examples 1-13, 60 minutes at 23° C., read-out: Geometric Mean Ki
[4] = Examples 14-78 and 114 (second head of Table 2), read-out: Geometric Mean Ki (nM) IC50

Compound | Ki [1, 3] [nM] | EC50 [2] [nM] | Ki [1, 4] [nM]
Cn1nc(C(F)(F)F)cc1OCC(=O)[C@H](C[C@@H]1CCNC1=O)NC(=O)[C@@H]1[C@@H]2[C@H](CN1C(=O)[C@@H](NS(C)(=O)=O)C(C)(C)C)C2(C)C [Example 7, (1R,2S,5S)-6,6-dimethyl-3-[3-methyl-N-(methylsulfonyl)-L-valyl]-N-{(2S)-4-{[1-methyl-3-(trifluoromethyl)-1H-pyrazol-5-yl]oxy}-3-oxo-1-[(3S)-2-oxopyrrolidin-3-yl]butan-2-yl}-3-azabicyclo[3.1.0]hexane-2-carboxamide] | 2.88 | 1260 | –
Cn1nc(C(F)(F)F)cc1OCC(=O)[C@H](C[C@@H]1CCNC1=O)NC(=O)[C@@H]1[C@@H]2[C@H](CN1C(=O)[C@@H](NC(=O)C(F)(F)F)C(C)(C)C)C2(C)C [Example 8, (1R,2S,5S)-6,6-dimethyl-3-[3-methyl-N-(trifluoroacetyl)-L-valyl]-N-{(2S)-4-{[1-methyl-3-(trifluoromethyl)-1H-pyrazol-5-yl]oxy}-3-oxo-1-[(3S)-2-oxopyrrolidin-3-yl]butan-2-yl}-3-azabicyclo[3.1.0]hexane-2-carboxamide] | 2.87 | 49.1 | –
CC(C)[C@H](NC(=O)C(F)(F)F)C(=O)N1C[C@H]2[C@@H]([C@H]1C(=O)N[C@@H](C[C@@H]1CCNC1=O)C(=O)COc1cc(C(F)(F)F)nn1C)C2(C)C [Example 9, (1R,2S,5S)-6,6-dimethyl-N-{(2S)-4-{[1-methyl-3-(trifluoromethyl)-1H-pyrazol-5-yl]oxy}-3-oxo-1-[(3S)-2-oxopyrrolidin-3-yl]butan-2-yl}-3-[N-(trifluoroacetyl)-L-valyl]-3-azabicyclo[3.1.0]hexane-2-carboxamide, trifluoroacetate salt] | 42.8 | 265 | –
CC(C)(C)[C@H](NS(=O)(=O)C(F)(F)F)C(=O)N1C[C@H]2[C@@H]([C@H]1C(=O)N[C@@H](C[C@@H]1CCNC1=O)C(=O)COc1cccc(C(F)(F)F)c1)C2(C)C [Example 10, (1R,2S,5S)-6,6-dimethyl-3-{3-methyl-N-[(trifluoromethyl)sulfonyl]-L-valyl}-N-{(2S)-3-oxo-1-[(3S)-2-oxopyrrolidin-3-yl]-4-[3-(trifluoromethyl)phenoxy]butan-2-yl}-3-azabicyclo[3.1.0]hexane-2-carboxamide] | 8.34 | 167 | –
CC(C)[C@H](NS(=O)(=O)C(F)(F)F)C(=O)N1C[C@H]2[C@@H]([C@H]1C(=O)N[C@@H](C[C@@H]1CCNC1=O)C(=O)COc1cc(C(F)(F)F)nn1C)C2(C)C [Example 11, (1R,2S,5S)-6,6-dimethyl-N-{(2S)-4-{[1-methyl-3-(trifluoromethyl)-1H-pyrazol-5-yl]oxy}-3-oxo-1-[(3S)-2-oxopyrrolidin-3-yl]butan-2-yl}-3-{N-[(trifluoromethyl)sulfonyl]-L-valyl}-3-azabicyclo[3.1.0]hexane-2-carboxamide] | 13.5 | 2030 | –
CC(C)(C)[C@H](NC(=O)C(F)(F)F)C(=O)N1C[C@H]2[C@@H]([C@H]1C(=O)N[C@@H](C[C@@H]1CCNC1=O)C(=O)COc1cccc(C(F)(F)F)c1)C2(C)C [Example 12, (1R,2S,5S)-6,6-dimethyl-3-[3-methyl-N-(trifluoroacetyl)-L-valyl]-N-{(2S)-3-oxo-1-[(3S)-2-oxopyrrolidin-3-yl]-4-[3-(trifluoromethyl)phenoxy]butan-2-yl}-3-azabicyclo[3.1.0]hexane-2-carboxamide] | 6.38 | 51.2 | –
CC(C)(C)[C@H](NS(C)(=O)=O)C(=O)N1C[C@H]2[C@@H]([C@H]1C(=O)N[C@@H](C[C@@H]1CCNC1=O)C(=O)COc1ccc(F)cc1F)C2(C)C [Example 13, (1R,2S,5S)-N-{(2S)-4-(2,4-difluorophenoxy)-3-oxo-1-[(3S)-2-oxopyrrolidin-3-yl]butan-2-yl}-6,6-dimethyl-3-[3-methyl-N-(methylsulfonyl)-L-valyl]-3-azabicyclo[3.1.0]hexane-2-carboxamide] | 1.78 | 98.6 | –
COc1ccc(COCC(=O)[C@H](C[C@@H]2CCNC2=O)NC(=O)[C@@H]2[C@@H]3[C@H](CN2C(=O)[C@@H](NC(=O)C(F)(F)F)C(C)(C)C)C3(C)C)cc1 [Example 14, (1R,2S,5S)-N-{(2S)-4-[(4-methoxyphenyl)methoxy]-3-oxo-1-[(3S)-2-oxopyrrolidin-3-yl]butan-2-yl}-6,6-dimethyl-3-[3-methyl-N-(trifluoroacetyl)-L-valyl]-3-azabicyclo[3.1.0]hexane-2-carboxamide] | – | 48.7 | 3.48
COC(=O)N[C@H](C(=O)N1C[C@H]2[C@@H]([C@H]1C(=O)N[C@@H](C[C@@H]1CCNC1=O)C(=O)COc1cccc(Cl)c1)C2(C)C)C(C)(C)C [Example 16, methyl {(2S)-1-[(1R,2S,5S)-2-({(2S)-4-(3-chlorophenoxy)-3-oxo-1-[(3S)-2-oxopyrrolidin-3-yl]butan-2-yl}carbamoyl)-6,6-dimethyl-3-azabicyclo[3.1.0]hexan-3-yl]-3,3-dimethyl-1-oxobutan-2-yl}carbamate] | – | 11.6 | 0.21
COC(=O)N[C@H](C(=O)N1C[C@H]2[C@@H]([C@H]1C(=O)N[C@@H](C[C@@H]1CCNC1=O)C(=O)COc1cccc(C(F)(F)F)c1)C2(C)C)C(C)(C)C [Example 17, methyl {(2S)-1-[(1R,2S,5S)-6,6-dimethyl-2-({(2S)-3-oxo-1-[(3S)-2-oxopyrrolidin-3-yl]-4-[3-(trifluoromethyl)phenoxy]butan-2-yl}carbamoyl)-3-azabicyclo[3.1.0]hexan-3-yl]-3,3-dimethyl-1-oxobutan-2-yl}carbamate] | – | 13.3 | < 0.443
COC(=O)N[C@H](C(=O)N1C[C@H]2[C@@H]([C@H]1C(=O)N[C@@H](C[C@@H]1CCNC1=O)C(=O)COc1ccc(F)cc1)C2(C)C)C(C)(C)C [Example 21, methyl {(2S)-1-[(1R,2S,5S)-2-({(2S)-4-(4-fluorophenoxy)-3-oxo-1-[(3S)-2-oxopyrrolidin-3-yl]butan-2-yl}carbamoyl)-6,6-dimethyl-3-azabicyclo[3.1.0]hexan-3-yl]-3,3-dimethyl-1-oxobutan-2-yl}carbamate] | – | 18.8 | 2.2
COC(=O)N[C@H](C(=O)N1C[C@H]2[C@@H]([C@H]1C(=O)N[C@@H](C[C@@H]1CCNC1=O)C(=O)COc1ccccc1F)C2(C)C)C(C)(C)C [Example 22, methyl {(2S)-1-[(1R,2S,5S)-2-({(2S)-4-(2-fluorophenoxy)-3-oxo-1-[(3S)-2-oxopyrrolidin-3-yl]butan-2-yl}carbamoyl)-6,6-dimethyl-3-azabicyclo[3.1.0]hexan-3-yl]-3,3-dimethyl-1-oxobutan-2-yl}carbamate] | – | 52 | 4.78
CC(C)[C@H](NC(=O)C(F)(F)F)C(=O)N1C[C@H]2[C@@H]([C@H]1C(=O)N[C@@H](C[C@@H]1CCNC1=O)C(=O)COc1ccccc1)C2(C)C [Example 23, (1R,2S,5S)-6,6-dimethyl-N-{(2S)-3-oxo-1-[(3S)-2-oxopyrrolidin-3-yl]-4-phenoxybutan-2-yl}-3-[N-(trifluoroacetyl)-L-valyl]-3-azabicyclo[3.1.0]hexane-2-carboxamide] | – | 32 | 1.78
COC(=O)N[C@H](C(=O)N1C[C@H]2[C@@H]([C@H]1C(=O)N[C@@H](C[C@@H]1CCNC1=O)C(=O)COc1ccc(F)cc1F)C2(C)C)C(C)(C)C [Example 24, methyl {(2S)-1-[(1R,2S,5S)-2-({(2S)-4-(2,4-difluorophenoxy)-3-oxo-1-[(3S)-2-oxopyrrolidin-3-yl]butan-2-yl}carbamoyl)-6,6-dimethyl-3-azabicyclo[3.1.0]hexan-3-yl]-3,3-dimethyl-1-oxobutan-2-yl}carbamate] | – | 17 | 1.41
COC(=O)N[C@H](C(=O)N1C[C@H]2[C@@H]([C@H]1C(=O)N[C@@H](C[C@@H]1CCNC1=O)C(=O)COc1cccc(Cl)c1)C2(C)C)C(C)C [Example 25, methyl {(2S)-1-[(1R,2S,5S)-2-({(2S)-4-(3-chlorophenoxy)-3-oxo-1-[(3S)-2-oxopyrrolidin-3-yl]butan-2-yl}carbamoyl)-6,6-dimethyl-3-azabicyclo[3.1.0]hexan-3-yl]-3-methyl-1-oxobutan-2-yl}carbamate] | – | 38.2 | 1.76
CCn1nc(C)cc1OCC(=O)[C@H](C[C@@H]1CCNC1=O)NC(=O)[C@@H]1[C@@H]2[C@H](CN1C(=O)[C@@H](NC(=O)C(F)(F)F)C(C)(C)C)C2(C)C [Example 27, (1R,2S,5S)-N-{(2S)-4-[(1-ethyl-3-methyl-1H-pyrazol-5-yl)oxy]-3-oxo-1-[(3S)-2-oxopyrrolidin-3-yl]butan-2-yl}-6,6-dimethyl-3-[3-methyl-N-(trifluoroacetyl)-L-valyl]-3-azabicyclo[3.1.0]hexane-2-carboxamide] | – | 422 | 8.84
CC(C)(C)[C@H](NS(=O)(=O)C(F)(F)F)C(=O)N1C[C@H]2[C@@H]([C@H]1C(=O)N[C@@H](C[C@@H]1CCNC1=O)C(=O)COc1cccc(Cl)c1)C2(C)C [Example 28, (1R,2S,5S)-N-{(2S)-4-(3-chlorophenoxy)-3-oxo-1-[(3S)-2-oxopyrrolidin-3-yl]butan-2-yl}-6,6-dimethyl-3-[3-methyl-N-(trifluoromethanesulfonyl)-L-valyl]-3-azabicyclo[3.1.0]hexane-2-carboxamide] | – | 16.8 | 2.15
